This passage reports IC50 and GI50 results from ChEMBL document CHEMBL5357036, “Latest developments in coumarin-based anticancer agents: mechanism of action and structure-activity relationship studies” (RSC Med Chem, 2024).

In brackets after ≈: the same amount, converted by molar mass.

Data set [1] has as its system HepG2. The data set can be described thus: Cytotoxicity against human HepG2 cells assessed as cell growth inhibition measured after 48 hrs by MTT assay. The class given is functional, cell-based. Conditions: HepG2, 48 h. On the technique in general: Tetrazolium dyes change colour on reduction, which living cells bring about.
For data set [2], the system named is MCF7. The data set can be described thus: Cytotoxicity against human MCF7 cells assessed as cell growth inhibition measured after 48 hrs by MTT assay. Format: functional, cell-based. To be noted: MCF7, 48 h.
The test system of data set [3] is K562. The data set can be described thus: Cytotoxicity against human K562 cells assessed as reduction in cell growth by MTT assay. Format: functional, cell-based.
For data set [4], the system named is MCF7. In words: Cytotoxicity against human MCF7 cells assessed as reduction in cell growth incubated for 48 hrs by MTT assay. To be noted: MCF7, 48 h. The class given is functional, cell-based.
For a further data set, the system named is A549. The data set can be described thus: Cytotoxicity against human A549 cells assessed as reduction in cell growth incubated for 48 hrs by MTT assay. The class given is functional, cell-based. Conditions: A549, 48 h.
Data set [5] concerns K562. In words: Cytotoxicity against human K562 cells assessed as reduction in cell viability incubated for 72 hrs by MTT assay. Format: functional, cell-based. Conditions: K562, 72 h.
In a further data set the test system is MDA-MB-231. In words: Antiproliferative activity against human MDA-MB-231 cells assessed as reduction in cell viability measured after 72 hrs under hypoxia condition by MTT assay. Format: functional, cell-based. To be noted: MDA-MB-231, 72 h.
The subject of data set [6] is MCF7. In words: Antiproliferative activity against human MCF7 cells assessed as reduction in cell proliferation by CCK-8 assay. Format: functional, cell-based.
A further data set deals with A2780. The data set can be described thus: Antiproliferative activity against human A2780 cells assessed as reduction in cell viability incubated for 48 hrs by MTT assay. To be noted: A2780, 48 h. The class given is functional, cell-based.
Data set [7] relates to HepG2. In words: Antiproliferative activity against human HepG2 cells assessed as reduction in cell viability. The class given is functional, cell-based.
Another data set has as its system OVCAR-3. The data set can be described thus: Antiproliferative activity against human OVCAR-3 cells assessed as cell viability measured after 72 hrs incubation by MTT assay. The class given is functional, cell-based. To be noted: OVCAR-3, 72 h.
The subject of a further data set is Hep 3B2. In words: Antiproliferative activity against human Hep3B cells assessed as inhibition of cell viability after 72 hrs by CCK-8 assay. Format: functional, cell-based.
Another data set has as its system T47D. The data set can be described thus: Anticancer activity against human T47D cells assessed as cell growth inhibition. Format: functional, cell-based.
Data set [8] deals with MCF7. In words: Growth inhibition of human MCF7 cells incubated for 48 hrs by SRB assay. Format: functional. (In general: Sulforhodamine B stains cellular protein and so reports cell mass.)
Data set [9] can be described thus: Cytotoxicity against green monkey COS-7 cells. The class given is toxicity, cell-based. To be noted: green monkey (Chlorocebus aethiops).
The subject of the next data set is Caco-2. In words: Cytotoxicity against human Caco-2 cells assessed as reduction in cell viability incubated for 72 hrs by MTT assay. The class given is functional, cell-based. To be noted: Caco-2, 72 h.
For the next data set, the system named is 4T1. In words: Cytotoxicity against mouse 4T1 cells assessed as inhibition of cell proliferation incubated for 72 hrs by MTT assay. Format: functional, cell-based. To be noted: 4T1, 72 h.
The next data set deals with HeLa. The data set can be described thus: Anticancer activity against human HeLa cells assessed as cell growth inhibition. The class given is functional.
Another data set deals with HOS. In words: Cytotoxicity against human HOS cells assessed as reduction in cell growth incubated for 5 days by MTT assay. Conditions: 120 h. The class given is functional, cell-based.
Another data set relates to HCT-116. The data set can be described thus: Cytotoxicity against human HCT-116 cells assessed as reduction in cell viability incubated for 48 hrs by SRB assay. Format: functional, cell-based. To be noted: HCT-116, 48 h.
A further data set has as its system HT-29. In words: Cytotoxicity against human HT-29 cells assessed as reduction in cell viability incubated for 48 hrs by SRB assay. Conditions: HT-29, 48 h. Format: functional, cell-based.
Data set [10] relates to HepG2. In words: Antiproliferative activity against human HepG2 cells assessed as reduction in cell viability incubated for 48 hrs by MTT assay. The class given is functional, cell-based. Conditions: HepG2, 48 h.
The test system of data set [11] is MCF7. In words: Antiproliferative activity against human MCF7 cells assessed as cell growth inhibition. The class given is functional, cell-based.
Data set [12] deals with MCF7. The data set can be described thus: Antiproliferative activity against human MCF7 cells assessed as reduction in cell viability incubated for 72 hrs by MTT assay. Format: functional, cell-based. To be noted: MCF7, 72 h.
For another data set, the system named is SW480. In words: Cytotoxicity against human SW480 cells assessed as reduction in cell viability incubated for 48 hrs by MTT. Format: functional, cell-based. Conditions: SW480, 48 h.
In data set [13] the test system is MCF7. The data set can be described thus: cells. To be noted: Homo sapiens, MCF7, 24 h.
Description: Cytotoxicity against human MCF7 cells assessed as reduction in cell viability incubated for 24 hrs by MTT assay

What is called IC50 is the midpoint of a concentration-inhibition curve. Regarding `Cc1cc(-c2cc3cc(Cl)ccc3oc2=O)n(-c2nc(-c3ccc(Cl)cc3)cs2)n1`, the IC50 in the data set on HepG2 [1] was 3.06 µM; with MCF7 [2], 4.42 µM.

As for `COc1ccc(-c2csc(-n3nc(C)cc3-c3cc4cc(Cl)ccc4oc3=O)n2)cc1`, the IC50 in the data set with MCF7 [2] was determined as 4.03 µM.

`Cc1c(Cc2ccc(NC(=O)Nc3ccc(F)c(F)c3)nc2)c(=O)oc2cc(O)c(C(C)(C)C)cc12`: the IC50 in the data set with K562 [3] was found to be 1.66 µM.

Regarding `O=C(CNCc1cccnc1)Nc1cc2ccccc2oc1=O`, the IC50 in the data set on MCF7 [4] and in the data set with A549 was 69.1 µM each time.

As to `COc1cccc(-c2cn(Cc3cc(=O)oc4cc(O)c(O)cc34)nn2)c1`, in the data set on K562 [5], the IC50 was 17.9 µM.

On to `COC(=O)c1cccc(NC(=O)c2ccc(-n3cc(COc4cc(=O)oc5ccccc45)nn3)cc2)c1`, for which the IC50 with MDA-MB-231 came to 0.25 µM.

With `Cc1c(Cc2ccccc2)c(=O)oc2cc(OS(N)(=O)=O)ccc12`, the IC50 in the data set with MCF7 [6] is 0.032 µM.

As to `CCN(CC)c1ccc2cc(C(=O)N3CCN(CCC[C@H]4O[C@@H]5O[C@@]6(C)CC[C@H]7[C@H](C)CC[C@@H]([C@H]4C)[C@@]57OO6)CC3)c(=O)oc2c1`, the IC50 was 5.82 µM in the data set with A2780, 3.05 µM in the data set with HepG2 [7], 4.6 µM with OVCAR-3 and 3.76 µM in the data set with Hep 3B2.

Regarding `Cc1cc(-c2cc3ccccc3oc2=O)n(-c2nc(-c3ccc(Cl)cc3)cs2)n1`, in the data set with HepG2 [1], the half-inhibitory concentration (IC50) came out at 3.74 µM.

As for `CCCCCCc1c(C)c2ccc(OS(N)(=O)=O)cc2oc1=O`, in the data set with MCF7 [6], the IC50 is 0.008 µM.

The GI50 is the concentration at which growth is held to half of that of the control. Regarding `O=C(/C=C/c1ccc(OCCN2CCCCC2)cc1)c1cc2ccccc2oc1=O`, the IC50 in the data set on T47D was determined as 2.32 µM. The GI50 in the data set with MCF7 [8] was < 10 µg/mL.

`O=c1oc2ccccc2cc1-c1csc(N/N=C/c2cc([N+](=O)[O-])ccc2Cl)n1` registered an IC50 in data set [9] of 1.96 µM.

On to `COc1ccccc1-c1cn(Cc2cc(=O)oc3cc(O)c(O)cc23)nn1`, for which the IC50 in the data set with Caco-2 came to 9.7 µM.

Consider `O=C(Cc1cc(=O)oc2cc(O)ccc12)NCCCCCCCCNc1c2c(nc3ccccc13)CCCC2`, for which the IC50 in the data set with 4T1 came to 7 µM.

Regarding `Cc1ccc(S(=O)(=O)n2c(-c3cc(=O)oc4ccc(C)cc34)nc3ccccc32)cc1`, the GI50 in the data set on HeLa was determined as 36.2 µg/mL (≈ 84.1 µM).

As for `COc1ccc2oc(=O)cc(-c3nc4ccccc4n3S(=O)(=O)c3ccc(C)cc3)c2c1`, the GI50 in the data set on HeLa was 35.3 µg/mL (≈ 79.1 µM).

With `Cn1cc(C(C)(c2cc3ccccc3oc2=O)c2cn(C)c3ccccc23)c2ccccc21`, the IC50 with HOS was found to be 12.2 µM.

`CCCc1cc(=O)oc2cc(Nc3nc(-c4ccc(Cl)cc4)cs3)ccc12`: the IC50 in the data set on HCT-116 and in the data set with HT-29 was 0.25 µM each time.

Take `C/C(=N\NC1=NCC(=O)S1)c1ccc(NS(=O)(=O)c2ccc3oc(=O)ccc3c2)cc1`: the IC50 in the data set on HepG2 [10] is 5.03 µM.

With `O=C1CCn2cc(nn2)CCOc2ccccc2C(C(=O)c2cc3ccccc3oc2=O)N1` (centres undefined), the IC50 in the data set on MCF7 [11] stood at 49 µM.

Consider `Cc1cc(=O)oc2cc(OCC(=O)Nc3ccc(C(=O)/C=C/c4ccco4)cc3)ccc12`, for which the IC50 in the data set with MCF7 [12] came to 9.62 µg/mL (≈ 22.4 µM).

Consider `COc1cc(/C=C/c2ccc3ccc(=O)oc3c2)ccc1O`, for which, in the data set on SW480, the IC50 turned out to be 5.33 µM.

Take `C/C(=N\Nc1nc(C)c(/N=N/c2ccc(C)cc2)s1)c1cc2cc(/N=N/c3ccccc3)ccc2oc1=O`: the IC50 in the data set with MCF7 [13] was found to be 11.2 µM.

Regarding `COc1ccc(/C=C/C(=N/O)c2ccc(NC(=O)COc3ccc4c(C)cc(=O)oc4c3)cc2)cc1`, the IC50 with MCF7 [12] was 20.9 µg/mL (≈ 43.1 µM).

Turning to `CCCCCCCCOc1ccc2c(C)c(/C=C/c3cc(OC)ccc3OC)c(=O)oc2c1`, in the data set on SW480, the IC50 was 6.92 µM.

For `CCCc1cc(=O)oc2cc(Nc3nc(-c4ccc(Br)cc4)cs3)ccc12`, the figures for the IC50 in the data set on HCT-116 and in the data set with HT-29 were 0.26 µM and 0.25 µM, respectively.
